This assay has as its target homodimer. As to the kind of experiment: Dimer dissociation constant from concentration dependence of NH chemical shifts (NMR). Format: binding. The text has this:
Dimerization of the Ach-containing peptide analogs of this invention can be detected by observing changes in NH chemical shifts as a function of concentration. For a dimerization process with dissociation constant Kd and NMR chemical shifts δmono and δdi, respectively, the observed chemical shift, δobs, as a function of concentration c is expressed by the following equation: [formula]
Experimental data were obtained for Ac-Phe-Ach-Leu-Ach-Ile, N-methyl amide and for its corresponding sarcosine-containing peptide corresponding to Ac-Phe-Sar-Leu-Sar-Ile, N-methyl amide, as well as for various other Ach-containing peptide analogs of this invention terminating in carboxylic acid groups rather than N-methyl amide groups, all in CDCl3 or CD3OH/CDCl3 at 25° C.
To distinguish between the two species, the dissociation constants of dimers of each species were determined.

Consider 4 compounds from patent publication US20030073721A1, “Peptide beta-strand mimics based on 1,2-dihydro-3(6H)-pyridinone” (THE REGENTS OF THE UNIVERSITY OF CALIFORNIA, a California …, priority 2001, published 2003).

Where two headings read alike, the source gives them in different places.

In the case of `CCC(C)C(NC1=CC(=O)CN(C(=O)C(CC(C)C)NC2=CC(=O)CN(C(=O)C(Cc3ccccc3)NC(C)=O)C2)C1)C(=O)NC` (stereo not drawn) [Ac-Phe-Ach-Leu-Ach-Ile-NHMe, Ac-Phe-Ach-Leu-Ach-Ile, N-Methyl Amide], the Kd (0% CD3OH/CDCl3 (pure CDCl3), 25° C., read-out: Dissociation constant Kd (dimer)) amounted to 400 µM.
For the compound “Ac-Leu-Ach-Val-Ach-Leu-Ach-Phe-OH [Ach-containing peptide analog (heptamer) terminating in carboxylic acid group]”, the Kd (15% CD3OH/CDCl3, 25° C., read-out: Dissociation constant Kd (dimer)) worked out at 1500 µM.
“Ac-Phe-Ach-Leu-Ach-Val-OH [Ach-containing peptide analog terminating in carboxylic acid group]”: the Kd (2.5% CD3OH/CDCl3, 25° C., read-out: Dissociation constant Kd (dimer)) came out at 90 µM; the Kd (5% CD3OH/CDCl3, 25° C., read-out: Dissociation constant Kd (dimer)) was 8000 µM; the Kd (pure chloroform, extrapolated from Kd vs CD3OH concentration, read-out: Dissociation constant in pure chloroform, extrapolation of the line in FIG. 1) was roughly 0.13 µM.
For “Phe-Gly-Ser-D-Pro-Ala-Leu-Ach-Ile [hybrid 1]”, where the note is “5% CD3OH/CDCl3, concentration range 0.6-42 mM, read-out: Dimer dissociation constant”, the Kd stood at 25000 µM.
